Assay results taken from US20260306640A1, “TECHNOLOGIES TARGETING CELL STATES” (Auron Therapeutics, Inc., priority 2023, published 2026).

Key:
[1] = target: KAT2B (Homo sapiens, UniProt Q92831); assay: KAT2B degradation, Western Blot (Jess), NCI-H1048 cells; format: cell-based; design: degrader, Western blot (Jess); details: NCI-H1048 cells, KAT2B, 24 h, Western Blot, vs DMSO; read-out: KAT2B NCI-H1048 DC50
In short: (§1)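 NCI-H1048 cells grown in HITES medium with 5% FBS were treated with compounds for 24 h at 37° C. Lysates were run by capillary Western (Jess) with KAT2A or KAT2B antibodies and chemiluminescent detection. DC50 derived from percent protein reduction versus DMSO control.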

[2] = target: KAT2A (Homo sapiens, UniProt Q92830); assay: KAT2A degradation, Western Blot (Jess), NCI-H1048 cells; format: cell-based; design: degrader, Western blot (Jess); details: NCI-H1048 cells, KAT2A, 24 h, Western Blot, vs DMSO; read-out: KAT2A NCI-H1048 DC50
KAT2A, sequence (Q92830 whole entry): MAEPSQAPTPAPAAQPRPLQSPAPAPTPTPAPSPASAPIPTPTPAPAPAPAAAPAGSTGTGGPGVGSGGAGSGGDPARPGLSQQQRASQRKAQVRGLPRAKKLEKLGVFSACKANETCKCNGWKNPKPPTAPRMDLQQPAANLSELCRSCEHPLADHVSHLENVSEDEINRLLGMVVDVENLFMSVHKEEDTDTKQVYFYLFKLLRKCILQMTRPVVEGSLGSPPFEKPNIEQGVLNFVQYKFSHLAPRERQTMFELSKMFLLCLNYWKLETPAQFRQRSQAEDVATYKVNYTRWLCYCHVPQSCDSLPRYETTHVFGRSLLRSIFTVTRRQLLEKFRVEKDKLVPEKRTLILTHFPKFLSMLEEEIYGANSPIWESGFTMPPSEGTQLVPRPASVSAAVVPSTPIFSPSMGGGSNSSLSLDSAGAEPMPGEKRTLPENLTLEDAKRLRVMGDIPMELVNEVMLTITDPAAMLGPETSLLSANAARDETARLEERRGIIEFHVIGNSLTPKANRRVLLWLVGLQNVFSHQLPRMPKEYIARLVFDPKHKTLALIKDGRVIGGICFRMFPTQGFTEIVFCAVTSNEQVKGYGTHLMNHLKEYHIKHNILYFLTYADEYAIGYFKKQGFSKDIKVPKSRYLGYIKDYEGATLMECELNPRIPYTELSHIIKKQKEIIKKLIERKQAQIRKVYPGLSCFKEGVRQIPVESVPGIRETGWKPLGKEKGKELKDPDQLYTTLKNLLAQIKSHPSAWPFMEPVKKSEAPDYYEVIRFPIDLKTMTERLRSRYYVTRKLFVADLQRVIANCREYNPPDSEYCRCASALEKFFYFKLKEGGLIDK
In short: as §1

KAT2B, sequence (Q92831 whole entry): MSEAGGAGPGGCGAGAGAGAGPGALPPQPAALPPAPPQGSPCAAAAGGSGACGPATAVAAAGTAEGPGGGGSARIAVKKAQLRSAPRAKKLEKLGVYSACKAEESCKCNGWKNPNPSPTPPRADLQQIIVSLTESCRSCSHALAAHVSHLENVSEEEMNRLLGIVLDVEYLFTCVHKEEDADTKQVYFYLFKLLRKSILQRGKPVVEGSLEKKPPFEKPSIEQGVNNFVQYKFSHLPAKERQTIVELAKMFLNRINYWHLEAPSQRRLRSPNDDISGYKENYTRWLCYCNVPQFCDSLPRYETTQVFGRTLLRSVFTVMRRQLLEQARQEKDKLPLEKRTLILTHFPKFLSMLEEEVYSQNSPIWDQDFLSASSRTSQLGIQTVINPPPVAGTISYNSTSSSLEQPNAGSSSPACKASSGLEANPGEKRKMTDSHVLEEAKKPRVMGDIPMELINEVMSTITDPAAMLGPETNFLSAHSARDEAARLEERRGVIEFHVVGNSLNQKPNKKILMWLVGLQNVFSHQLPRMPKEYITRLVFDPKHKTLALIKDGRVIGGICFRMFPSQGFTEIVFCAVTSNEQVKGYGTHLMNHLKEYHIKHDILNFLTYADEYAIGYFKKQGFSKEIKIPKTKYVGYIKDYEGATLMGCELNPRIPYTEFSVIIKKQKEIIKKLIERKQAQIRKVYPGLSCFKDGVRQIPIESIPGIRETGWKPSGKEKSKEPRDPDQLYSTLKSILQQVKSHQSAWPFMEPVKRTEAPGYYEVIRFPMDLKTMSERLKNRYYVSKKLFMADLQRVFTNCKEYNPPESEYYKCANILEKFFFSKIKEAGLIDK

| SMILES | DC50 [1] [nM] | DC50 [2] [nM] |
| --- | --- | --- |
| CN1C[C@H](Nc2cnn(C)c(=O)c2Br)C[C@H](c2ccc(CN3CCC(c4ccc5c(c4)C(=O)N(C4CCC(=O)NC4=O)C5=O)C(F)(F)C3)cc2)C1 (some centres unmarked) [Compound 391] | < 1 | > 30 |
| Cc1cc(N2CCC3(CCN(C(=O)c4ccc([C@H]5C[C@@H](Nc6cnn(C)c(=O)c6Br)CN(C)C5)cc4)CC3)CC2)ccc1N1CCC(=O)NC1=O [Compound 395] | < 1 | < 1 |
| Cc1cc(N2CCC3(CCN(C(=O)c4ccc([C@H]5C[C@@H](Nc6cnn(C)c(=O)c6Cl)CN(C)C5)cc4)CC3)CC2)ccc1N1CCC(=O)NC1=O [Compound 396] | < 1 | < 1 |
| CN1C[C@H](Nc2cnn(C)c(=O)c2Br)C[C@H](c2ccc(C(=O)N3CCC4(CC3)CCN(c3ccc(N5CCC(=O)NC5=O)c(F)c3)CC4)cc2)C1 [Compound 397] | < 1 | < 1 |
| CN1C[C@H](Nc2cnn(C)c(=O)c2Cl)C[C@H](c2ccc(C(=O)N3CCC4(CC3)CCN(c3ccc(N5CCC(=O)NC5=O)c(F)c3)CC4)cc2)C1 [Compound 398] | < 1 | < 1 |
| Cc1cc(N2CCC3(CCN(C(=O)c4ccc([C@H]5C[C@@H](Nc6cnn(C)c(=O)c6Cl)CN(C)C5)cc4)CC3)CC2)cc(C)c1N1CCC(=O)NC1=O [Compound 399] | > 30 | > 30 |
| CN1C[C@H](Nc2cnn(C)c(=O)c2Cl)C[C@H](c2ccc(N3CCC4(CC3)CCN(c3cccc(CN5CCC(=O)NC5=O)c3)CC4)cc2)C1 [Compound 401] | > 30 | < 1 |
| CN1C[C@H](Nc2cnn(C)c(=O)c2Br)C[C@H](c2ccc(C(=O)N3CCC4(CC3)CCN(c3ccc(C(=O)NC5CCC(=O)NC5=O)nc3)CC4)cc2)C1 (some centres unmarked) [Compound 402] | < 1 | < 1 |
| CN1C[C@H](Nc2cnn(C)c(=O)c2Cl)C[C@H](c2ccc(C(=O)N3CCC4(CC3)CCN(c3ccc(C(=O)NC5CCC(=O)NC5=O)nc3)CC4)cc2)C1 (some centres unmarked) [Compound 403] | 1 to 30 | < 1 |
| CN1C[C@H](Nc2cnn(C)c(=O)c2Br)C[C@H](c2ccc(C(=O)N3CCC4(CC3)CCN(c3cnc(C(=O)NC5CCC(=O)NC5=O)c(F)c3)CC4)cc2)C1 (some centres unmarked) [Compound 404] | 1 to 30 | < 1 |
| CN1C[C@H](Nc2cnn(C)c(=O)c2Cl)C[C@H](c2ccc(C(=O)N3CCC4(CC3)CCN(c3ccc(C(=O)NC5CCC(=O)NC5=O)c(F)c3)CC4)cc2)C1 (some centres unmarked) [Compound 405] | 1 to 30 | < 1 |
| Cc1ncsc1-c1ccc(CNC(=O)[C@@H]2C[C@@H](O)CN2C(=O)[C@@H](NC(=O)CN2CCN(C3CCN(C(=O)c4ccc([C@H]5C[C@@H](Nc6cnn(C)c(=O)c6Br)CN(C)C5)cc4)CC3)CC2)C(C)(C)C)cc1 [Compound 408] | > 30 | > 30 |
| Cc1ncsc1-c1ccc(CNC(=O)[C@@H]2C[C@@H](O)CN2C(=O)[C@@H](NC(=O)CN2CCC(N3CCN(C(=O)c4ccc([C@H]5C[C@@H](Nc6cnn(C)c(=O)c6Br)CN(C)C5)cc4)CC3)CC2)C(C)(C)C)cc1 [Compound 409] | > 30 | 1 to 30 |
| Cc1ncsc1-c1ccc(CNC(=O)[C@@H]2C[C@@H](O)CN2C(=O)[C@@H](NC(=O)CC2CCN(C(=O)c3ccc([C@H]4C[C@@H](Nc5cnn(C)c(=O)c5Br)CN(C)C4)cc3)CC2)C(C)(C)C)cc1 [Compound 411] | > 30 | > 30 |
| Cc1ncsc1-c1ccc(CNC(=O)[C@@H]2C[C@@H](O)CN2C(=O)[C@@H](NC(=O)CCCCCCCCNC(=O)c2ccc([C@H]3C[C@@H](Nc4cnn(C)c(=O)c4Br)CN(C)C3)cc2)C(C)(C)C)cc1 [Compound 420] | > 30 | > 30 |
| Cc1ncsc1-c1ccc(CNC(=O)[C@@H]2C[C@@H](O)CN2C(=O)[C@@H](NC(=O)CCCCCNC(=O)c2ccc([C@H]3C[C@@H](Nc4cnn(C)c(=O)c4Br)CN(C)C3)cc2)C(C)(C)C)cc1 [Compound 421] | > 30 | > 30 |
| Cc1ncsc1-c1ccc(CNC(=O)[C@@H]2C[C@@H](O)CN2C(=O)[C@@H](NC(=O)CCCCNC(=O)c2ccc([C@H]3C[C@@H](Nc4cnn(C)c(=O)c4Br)CN(C)C3)cc2)C(C)(C)C)cc1 [Compound 422] | > 30 | > 30 |
| Cc1ncsc1-c1ccc(CNC(=O)[C@@H]2C[C@@H](O)CN2C(=O)[C@@H](NC(=O)COCCOCCNC(=O)c2ccc(C3CC(Nc4cnn(C)c(=O)c4Br)CN(C)C3)cc2)C(C)(C)C)cc1 (some centres unmarked) [Compound 423] | > 30 | > 30 |
| Cn1ncc(N[C@@H]2C[C@H](c3ccc(C(=O)N4CCC5(CC4)CCN(c4ccc(C6CCC(=O)NC6=O)cc4)CC5)cc3)CN(C3CC3)C2)c(Br)c1=O (stereo partly drawn) [Compound 424, 3-(4-(9-(4-((3R,5R)-5-((5-bromo-1-methyl-6-oxo-1,6-dihydropyridazin-4-yl)amino)-1-cyclopropylpiperidin-3-yl)benzoyl)-3,9-diazaspiro[5.5]undecan-3-yl)phenyl)piperidine-2,6-dione] | > 30 | > 30 |
| Cn1ncc(N[C@@H]2C[C@H](c3ccc(C(=O)N4CCC5(CC4)CCN(c4ccc(C6CCC(=O)NC6=O)cc4)CC5)cc3)CN(CC3CC3)C2)c(Br)c1=O (stereo partly drawn) [Compound 425, 3-[4-[3-[4-[(3R,5R)-5-[(5-bromo-1-methyl-6-oxo-pyridazin-4-yl)amino]-1-(cyclopropylmethyl)-3-piperidyl]benzoyl]-3,9-diazaspiro[5.5]undecan-9-yl]phenyl]piperidine-2,6-dione] | < 1 | < 1 |
| CN1C[C@H](Nc2nc3cc[nH]c3c(=O)n2C)C[C@H](c2ccc(C(=O)N3CCC4(CC3)CCN(c3ccc(C5CCC(=O)NC5=O)cc3)CC4)cc2)C1 (stereo partly drawn) [Compound 427, 3-(4-(9-(4-((3R,5R)-1-methyl-5-((3-methyl-4-oxo-4,5-dihydro-3H-pyrrolo[3,2-d]pyrimidin-2-yl)amino)piperidin-3-yl)benzoyl)-3,9-diazaspiro[5.5]undecan-3-yl)phenyl)piperidine-2,6-dione] | < 1 | < 1 |
| C[C@H](Nc1nn(C)c(=O)c2cccnc12)[C@H](c1ccc(C(=O)N2CCC3(CC2)CCN(c2ccc(C4CCC(=O)NC4=O)cc2)CC3)cc1)N(C)C (stereo partly drawn) [Compound 429, 3-(4-(9-(4-((1S,2S)-1-(dimethylamino)-2-((6-methyl-5-oxo-5,6-dihydropyrido[2,3-d]pyridazin-8-yl)amino)propyl)benzoyl)-3,9-diazaspiro[5.5]undecan-3-yl)phenyl)piperidine-2,6-dione] | 1 to 30 | < 1 |
| C[C@H](Nc1nn(C)c(=O)c2ncccc12)[C@H](c1ccc(C(=O)N2CCC3(CC2)CCN(c2ccc(C4CCC(=O)NC4=O)cc2)CC3)cc1)N(C)C (stereo partly drawn) [Compound 430, 3-(4-(9-(4-((1S,2S)-1-(dimethylamino)-2-((7-methyl-8-oxo-7,8-dihydropyrido[2,3-d]pyridazin-5-yl)amino)propyl)benzoyl)-3,9-diazaspiro[5.5]undecan-3-yl)phenyl)-piperidine-2,6-dione] | > 30 | < 1 |
| C[C@H](Nc1nn(C)c(=O)c2ccccc12)[C@H](c1ccc(C(=O)N2CCC3(CC2)CCN(c2ccc(C4CCC(=O)NC4=O)cc2)CC3)cc1)N(C)C (stereo partly drawn) [Compound 432, 3-(4-(9-(4-((1S,2S)-1-(dimethylamino)-2-((3-methyl-4-oxo-3,4-dihydro-phthalazin-1-yl)amino)propyl)benzoyl)-3,9-diazaspiro[5.5]undecan-3-yl)phenyl)piperid-ine-2,6-dione] | > 30 | < 1 |
| CN1C[C@H](Nc2cnn(C)c(=O)c2Br)C[C@H](c2ccc(COc3ccc4c(=O)n(C5CCC(=O)NC5=O)ccc4c3)cc2)C1 (stereo partly drawn) [Compound 433, 3-(6-((4-((3R,5R)-5-((5-bromo-1-methyl-6-oxo-1,6-dihydropyridazin-4-yl)amino)-1-methylpiperidin-3-yl)benzyl)oxy)-1-oxoisoquinolin-2(1H)-yl)piperidine-2,6-dione] | 1 to 30 | < 1 |
| CN1C[C@H](Nc2cnn(C)c(=O)c2Br)C[C@H](c2ccc(N3CCC(Oc4cccc(C5CCC(=O)NC5=O)c4)CC3)cc2)C1 (stereo partly drawn) [Compound 434, 3-(3-((1-(4-((3R,5R)-5-((5-bromo-1-methyl-6-oxo-1,6-dihydropyridazin-4-yl)amino)-1-methylpiperidin-3-yl)phenyl)piperidin-4-yl)oxy)phenyl)piperidine-2,6-dione] | < 1 | < 1 |
| CN1C[C@H](Nc2cnn(C)c(=O)c2Br)C[C@H](c2ccc(CN3CCN(c4cccc(OC5CCC(=O)NC5=O)c4)CC3)cc2)C1 (stereo partly drawn) [Compound 435, 3-(3-(4-(4-((3R,5R)-5-((5-bromo-1-methyl-6-oxo-1,6-dihydropyridazin-4-yl)amino)-1-methylpiperidin-3-yl)benzyl)piperazin-1-yl)phenoxy)piperidine-2,6-dione] | > 30 | > 30 |
| Cc1cc(N2CCC3(CCN(c4ccc([C@H]5C[C@@H](Nc6cnn(C)c(=O)c6Br)CN(C)C5)cc4)CC3)CC2)ccc1C1CCC(=O)NC1=O (stereo partly drawn) [Compound 436, 3-(4-(9-(4-((3R,5R)-5-((5-bromo-1-methyl-6-oxo-1,6-dihydropyridazin-4-yl)amino)-1-methylpiperidin-3-yl)phenyl)-3,9-diazaspiro[5.5]undecan-3-yl)-2-methylphenyl)piperidine-2,6-dione] | 1 to 30 | < 1 |
